US4965377A, “Process of forming 2-(2-bromo-2-nitroethenyl)-furan” (Great Lakes Chemical Corporation, priority 1989, dated 1990)
Converted amounts (≈) assume the structure as drawn. Read-outs that look alike come from different tables or passages of the source.

Assays:
Pseudomonas aeruginosa [1] = assay: Minimum inhibitory concentration against Pseudomonas aeruginosa; assay type: cell-based
Procedure: (§1) All of the minimum inhibitory concentration determinations were made in a nutrient-rich growth medium in the following manner. Each organism was inoculated into a nutrient-rich medium that supported its growth. Various concentrations of a solution of the antimicrobial in THFA (90% THFA, 10% antimicrobial) were dosed into the inoculated growth medium; inoculated media were also dosed only with THFA (no antimicrobial)to serve as controls. Two concentrations of antimicrobial were recorded for each organism after growth in the controls was visible (the lowest concentration that prevented growth and the highest concentration that allowed growth); the MIC is reported as the range between these concentrations.

Baccilus megaterium = assay: Minimum inhibitory concentration against Bacillus megaterium; assay type: cell-based; conditions: Priestia megaterium, read-out: Minimum Inhibitory Conc
Procedure: as §1

Chlorella pyrenoidosa = assay: Minimum inhibitory concentration against Chlorella pyrenoidosa; assay type: cell-based; conditions: Auxenochlorella pyrenoidosa
Procedure: as §1

bacteria and algae = assay: Antimicrobial activity, general statement
Staphylococcus aureus = assay: Minimum inhibitory concentration against Staphylococcus aureus; assay type: cell-based; conditions: Table 3, nutrient-rich growth medium, bacterium
Procedure: as §1

Xanthomonas prunii = assay: Minimum inhibitory concentration against Xanthomonas prunii; assay type: cell-based; conditions: Table 3, nutrient-rich growth medium, bacterium
Procedure: as §1

Xanthomonas palargonii = assay: Minimum inhibitory concentration against Xanthomonas palargonii; assay type: cell-based; conditions: Table 3, nutrient-rich growth medium, bacterium
Procedure: as §1

[2] = system: Xanthomonas poinsettiacola; assay: Minimum inhibitory concentration against Xanthomonas poinsettiacola; assay type: cell-based; conditions: Table 3, nutrient-rich growth medium, bacterium
Procedure: as §1

Erwina chysanthemi = assay: Minimum inhibitory concentration against Erwina chysanthemi; assay type: cell-based; conditions: Table 3; nutrient-rich growth medium; bacterium
Procedure: as §1

Erwina anylovora = assay: Minimum inhibitory concentration against Erwina anylovora; assay type: cell-based; conditions: Table 3; nutrient-rich growth medium; bacterium
Procedure: as §1

Erwina caratovora = assay: Minimum inhibitory concentration against Erwina caratovora; assay type: cell-based; conditions: Table 3; nutrient-rich growth medium; bacterium
Procedure: as §1

[3] = system: Agrobacterium tumefaciens; assay: Minimum inhibitory concentration against Agrobacterium tumefaciens; assay type: cell-based; conditions: Table 3, nutrient-rich growth medium, bacterium
Procedure: as §1

[4] = system: Photobacterium phosphoreum; assay: Minimum inhibitory concentration against Photobacterium phosphoreum; assay type: cell-based; conditions: Table 3, nutrient-rich growth medium, bacterium
Procedure: as §1

[5] = system: Desulfovibro desulfuricans; assay: Minimum inhibitory concentration against Desulfovibro desulfuricans; assay type: cell-based; conditions: Table 3; nutrient-rich growth medium; bacterium
Procedure: as §1

Alternaria solani = assay: Minimum inhibitory concentration against Alternaria solani; assay type: cell-based; conditions: Table 3, nutrient-rich growth medium, fungus
Procedure: as §1

Asperillus niger = assay: Minimum inhibitory concentration against Asperillus niger; assay type: cell-based; conditions: Table 3; nutrient-rich growth medium; fungus
Procedure: as §1

Saccharomyces sp. = assay: Minimum inhibitory concentration against Saccharomyces sp.; assay type: cell-based; conditions: Table 3; nutrient-rich growth medium; fungus (yeast)
Procedure: as §1

Trichoderma virde = assay: Minimum inhibitory concentration against Trichoderma virde; assay type: cell-based; conditions: Table 3, nutrient-rich growth medium, fungus
Procedure: as §1

Rhizoctonia sp. = assay: Minimum inhibitory concentration against Rhizoctonia sp.; assay type: cell-based; conditions: Table 3, nutrient-rich growth medium, fungus
Procedure: as §1

Pseudomonas aeruginosa [6] = assay: Viability of Pseudomonas aeruginosa in phosphate buffered water (FIG. 1); assay type: cell-based; conditions: after 6 hours of contact, pH 7.2
Procedure: FIG. 1 illustrates a decrease in the viability of Pseudomonas aeruginosa, a common bacterial genus found in industrial cooling water upon contact with different concentrations of BNEF. The experiment was performed in phosphate buffered water at a pH of 7.2.

[7] = ASTM Pulp and Paper efficacy test (ASTM E600-85); assay type: cell-based; conditions: compared with two commercially successful antimicrobials
From the text: BNEF can also be used as an antimicrobial in pulp and paper manufacturing applications.

bacteria = assay: Metal working fluid preservation test, bacteria (FIG. 3); assay type: cell-based, bacteria from spoiled metal working fluid; conditions: soluble oil, semisynthetic, and synthetic fluids; 72 hours, room temperature
Procedure: (§2) In addition to pulp and paper manufacturing, BNEF can be used as a metal working fluid preservative. […] These tests were performed in the following manner. A typical soluble oil, semi-synthetic, and synthetic metalworking fluid were prepared with tap water at a ratio of 20:1. A field sample of "spoiled" fluid was mixed with a nutrient broth (50/50) and incubated for 24 hours to serve as the bacterial inoculum. Fungi isolated from metalworking fluids were grown on agar plates. The fungi were harvested into a suspension which then served as the fungal inoculum. At time zero, 50 ml aliquots of each fluid were prepared. The fluids were inoculated and dosed with the antimicrobial agent at different concentrations. Time zero bacterial and fungal counts were taken on each control fluid. The samples were then placed on a mechanical shaker (at room temperature) for 72 hours. Bacterial and fungal counts were then performed. The preferred level of BNEF in this application is in the range of 10 to 100 ppm.

fungi = assay: Metal working fluid preservation test, fungi; assay type: cell-based, fungi isolated from metalworking fluids; conditions: soluble oil, semisynthetic, and synthetic fluids; 72 hours, room temperature
Procedure: as §2

[8] = system: naturally occurring microorganism in industrial cooling water; assay: Efficacy in industrial cooling water, ASTM E-645-85 method (FIG. 4); assay type: cell-based; conditions: 5 ppm, 24 hours of contact
From the text: FIG. 4 is a graph showing the efficacy of 2-(2-bromo-2-nitroethenyl)-furan in industrial cooling water applications according to the ASTM E-645-85 method.
BNEF can also be used in water treatment such as for example treatment of industrial cooling water. […] Shorter contact times require a higher concentration of BNEF in the application. Preferably an antimicrobially effective amount of BNEF should be added to reduce the viability of microorganisms by at least 90 percent. It is especially preferred to employ about 1 ppm to about 5 ppm of BNEF.

[9] = Kinetics of disinfection in phosphate buffer (FIG. 5); assay type: cell-based; conditions: 10 ppm (w/v); phosphate buffer pH 7.0
From the text: FIG. 5 is a graph showing the kinetics of disinfection of 2-(2-bromo-2-nitroethenyl)-furan in comparison to its styrene analogue.

Pseudomonas aeruginosa [10] = assay: Contact time required for 99.9% reduction in viability of Pseudomonas aeruginosa in water; assay type: cell-based
Procedure: Virtually all modern water treatment applications are alkaline. Even in an alkaline condition, BNEF is quite active. Data in Table 2 show the contact time of BNEF required for a 99.9% reduction in Viability of Pseudomonas aeruginosa in water. Several pure culture cell suspensions of Pseudomonas aeruginosa were prepared in phosphate-buffered water that had been adjusted to pH 7.0 or pH 8.1. The initial concentration of viable cells was determined by counting colony forming-units in the standard spread plate method. A tetrahydrofurfuryl alcohol (THFA) solution containing the antimicrobial (90% THFA, 10% antimicrobial) was added to cell suspensions at each pH such that 10 ppm of the antimicrobial was dosed. Similarly, THFA was added without antimicrobial to cell suspensions at each pH value to serve as no-treatment controls. The concentration of viable cells was then determined at regular time intervals for all of the cell suspensions until at least 99.9% reduction in viability (compared to the controls) was achieved by the antimicrobial treatment.

[11] = Table 4, analogues, read-out: MIC Against Pseudomonas aeruginosa
[12] = Table 1, read-out: Minimum Inhibitory Conc
[13] = Table 1, Chlorella pyrenoidosa, read-out: Minimum Inhibitory Conc
[14] = read-out: Minimum Inhibitory Conc

## O=[N+]([O-])C(Br)=Cc1cccs1 [2-(2-bromo-2-nitroethenyl)-thiophene]
Pseudomonas aeruginosa [1]; [11]
  MIC: 21 to 42 µg/mL (≈ 89.7 to 179 µM)

## O=[N+]([O-])C=Cc1ccco1 [2-nitro-1-(2-furyl)ethylene, reference compound]
Pseudomonas aeruginosa [1]; [12]
  MIC: 63 to 125 µg/mL (≈ 453 to 899 µM)
Baccilus megaterium; Table 1, Baccilus megaterium
  MIC: 63 to 125 µg/mL (≈ 453 to 899 µM)
Chlorella pyrenoidosa; [13]
  MIC: 16 to 63 µg/mL (≈ 115 to 453 µM)
Bacteria and algae; background statement
  antimicrobial activity relative to BNEF: lower antimicrobial activity

## O=CC=Cc1ccco1 [3-(2-furyl)acrolein]
Pseudomonas aeruginosa [1]; [14]
  MIC: 250 to 500 µg/mL (≈ 2050 to 4090 µM)
Baccilus megaterium
  MIC: 250 to 500 µg/mL (≈ 2050 to 4090 µM)
Chlorella pyrenoidosa; [14]
  MIC: 16 to 63 µg/mL (≈ 131 to 516 µM)

## O=[N+]([O-])C(Br)=Cc1ccc(Br)o1 [5-bromo-2-(2-bromo-2-nitroethenyl)-furan]
Pseudomonas aeruginosa [1]; [11]
  MIC: 10 to 20 µg/mL (≈ 33.7 to 67.4 µM)

## Cc1ccc(C=C(Br)[N+](=O)[O-])o1 [5-methyl-2-(2-bromo-2-nitroethenyl)-furan]
Pseudomonas aeruginosa [1]; [11]
  MIC: 21 to 42 µg/mL (≈ 90.5 to 181 µM)

## O=[N+]([O-])C(Br)=Cc1ccc([N+](=O)[O-])o1 [5-nitro-2-(2-bromo-2-nitroethenyl)-furan]
Pseudomonas aeruginosa [1]; read-out: MIC Against Pseudomonas aeruginosa
  MIC: 8 to 16 µg/mL (≈ 30.4 to 60.8 µM)

## O=Cc1ccc([N+](=O)[O-])o1 [5-nitro-2-furaldehyde]
Pseudomonas aeruginosa [1]; [12]
  MIC: 6 to 12 µg/mL (≈ 42.5 to 85.1 µM)
Baccilus megaterium; Table 1, Baccilus megaterium
  MIC: 3 to 6 µg/mL (≈ 21.3 to 42.5 µM)
Chlorella pyrenoidosa; [13]
  MIC: 4 to 16 µg/mL (≈ 28.4 to 113 µM)

## O=[N+]([O-])C(Br)=Cc1ccco1 [BNEF, 2-(2-bromo-2-nitroethenyl)-furan]
Pseudomonas aeruginosa [1]; [12]
  MIC: 5 to 10 µg/mL (≈ 22.9 to 45.9 µM)
Baccilus megaterium; Table 1, Baccilus megaterium
  MIC: 5 to 10 µg/mL (≈ 22.9 to 45.9 µM)
Chlorella pyrenoidosa; [13]
  MIC: 4 to 16 µg/mL (≈ 18.3 to 73.4 µM)
Chlorella pyrenoidosa; Table 3, nutrient-rich growth medium, algae, read-out: MIC
  MIC: 4 to 16 µg/mL (≈ 18.3 to 73.4 µM)
Staphylococcus aureus
  MIC: 3 to 7.6 µg/mL (≈ 13.8 to 34.9 µM)
Xanthomonas prunii
  MIC: 2 to 5 µg/mL (≈ 9.17 to 22.9 µM)
Xanthomonas palargonii
  MIC: 1 to 2 µg/mL (≈ 4.59 to 9.17 µM)
[2]
  MIC: 0.5 to 1 µg/mL (≈ 2.29 to 4.59 µM)
Erwina chysanthemi
  MIC: 0.5 to 1 µg/mL (≈ 2.29 to 4.59 µM)
Erwina anylovora
  MIC: < 0.5 µg/mL
Erwina caratovora
  MIC: 0.5 to 1 µg/mL (≈ 2.29 to 4.59 µM)
[3]
  MIC: 0.5 to 1 µg/mL (≈ 2.29 to 4.59 µM)
[4]
  MIC: 1 to 5 µg/mL (≈ 4.59 to 22.9 µM)
[5]
  MIC: < 2 µg/mL
Alternaria solani
  MIC: < 1 µg/mL
Asperillus niger
  MIC: < 1 µg/mL
Saccharomyces sp.
  MIC: < 3 µg/mL
Trichoderma virde
  MIC: < 5 µg/mL
Rhizoctonia sp.
  MIC: < 1 µg/mL
Pseudomonas aeruginosa [6]
  concentration required to eliminate 99.9% of the test inoculum: about 10 ppm
[7]
  activity in Pulp and Paper efficacy test: at least as active as two commercially successful antimicrobials
bacteria
  effectiveness in metal working fluids against bacteria: effective
fungi
  effectiveness in metal working fluids against fungi: effective
[8]
  reduction in viability: ~99%
[9]
  effectiveness compared to β-bromo-β-nitrostyrene: as effective as an antimicrobial in water treatment application as β-bromo-β-nitrostyrene
Pseudomonas aeruginosa [10]; 10 ppm, pH 7.0, Initial Cell Concentration 3.2 × 10^4
  Required Contact Time (99.9% reduction): 5 h
Pseudomonas aeruginosa [10]; 10 ppm, pH 8.1, Initial Cell Concentration ~1.0 × 10^4
  Required Contact Time (99.9% reduction): 1 h
Pseudomonas aeruginosa [10]; 10 ppm, pH level of 8 compared to pH level of 7
  disinfection rate, effect of pH: faster at a pH level of 8
Bacteria and algae; summary of Table 1
  antimicrobial activity: active at very low concentrations

## C=Cc1ccco1 [furylethylene]
Pseudomonas aeruginosa [1]; [12]
  MIC: > 1000 µg/mL
Baccilus megaterium; Table 1, Baccilus megaterium
  MIC: > 1000 µg/mL
Chlorella pyrenoidosa; [13]
  MIC: 250 to 1000 µg/mL (≈ 2660 to 10600 µM)

## O=[N+]([O-])C(Br)=Cc1ccccc1 [β-bromo-β-nitrostyrene, reference compound]
Pseudomonas aeruginosa [10]; β-bromo-β-nitrostyrene, source of finding not stated
  disinfection rate, effect of higher pH: Increased disinfection rate with higher pH
